The data set is described as follows: cn = amount concentration of the nth substance listed, in mol/dm3. Particulars: 298.15 K, 101 kPa, Liquid, Taylor dispersion method.

As to `N[C@@H](Cc1ccc(O)c(O)c1)C(=O)O` [L-3,4-dihydroxyphenylalanine] + O, the binary diffusion coefficient (c1 = 0.005) is 6.2e-10 m2/s.

`Cl` [hydrogen chloride] + O: the binary diffusion coefficient came out at 2.99e-09 m2/s (c1 = 0.005) and 2.9e-09 m2/s (c1 = 0.1).
